In patent publication US8546383B2, “Chiral fused [1,2]imidazo[4,5-c] ring compounds” (3M Innovative Properties Company, priority 2004, dated 2013):

## CC(C)[C@H]1COCc2nc3c(N)nc4ccccc4c3n21 [Example 1, (11S)-1′-Isopropyl-10,11-dihydro-8H-[1,4]oxazino[4′,3′:1,2]imidazo[4,5-c]quinolin-6-amine]
  melting point: 249 to 250 °C

## CC(C)[C@H]1COCc2nc3c(N)nc4ccc(OCc5ccccc5)cc4c3n21 [Example 19, (11S)-2-(Benzyloxy)-11-isopropyl-10,11-dihydro-8H-[1,4]oxazino[4′,3′:1,2]imidazo[4,5-c]quinolin-6-amine]
  melting point: 139 to 141 °C

## CC(C)(F)[C@H]1COCc2nc3c(N)nc4cccnc4c3n21 [Example 16, (11R)-11-(1-Fluoro-1-methylethyl)-10,11-dihydro-8H-[1,4]oxazino[4′,3′:1,2]imidazo[4,5-c][1,5]naphthyridin-6-amine]
  melting point: 192 to 194 °C

## C[C@H]1COCc2nc3c(N)nc4ccc(OCc5cscn5)cc4c3n21 [Example 54, (11S)-11-Methyl-2-(1,3-thiazol-4-ylmethoxy)-10,11-dihydro-8H-[1,4]oxazino[4′,3′:1,2]imidazo[4,5-c]quinolin-6-amine]
  melting point: 240 to 242 °C

## C[C@H]1COCc2nc3c(N)nc4ccccc4c3n21 [Example 5, (11S)-11-Methyl-10,11-dihydro-8H-[1,4]oxazino[4′,3′:1,2]imidazo[4,5-c]quinolin-6-amine]
  melting point: 280 to 282 °C

## c1ccc2c(c1)ncc1nc3n(c12)[C@@H](C1CCOCC1)COC3 [Example 42, (11S)-11-Tetrahydro-2H-pyran-4-yl-10,11-dihydro-8H-[1,4]oxazino[4′,3′:1,2]imidazo[4,5-c]quinoline]
  melting point: 234 to 237 °C

## Nc1nc2ccccc2c2c1nc1n2[C@@H](CO)COC1 [Example 35, [(11S)-6-Amino-10,11-dihydro-8H-[1,4]oxazino[4′,3′:1,2]imidazo[4,5-c]quinolin-11-yl]methanol]
  melting point: 238.6 to 239.8 °C

## C[C@H]1COCc2nc3c(N)nc4cc(OCc5ccccc5)ccc4c3n21 [Example 7, (11S)-3-(Benzyloxy)-11-methyl-10,11-dihydro-8H-[1,4]oxazino[4′,3′:1,2]imidazo[4,5-c]quinolin-6-amine]
  melting point: 218 to 220 °C

## Nc1nc2ccccc2c2c1nc1n2[C@@H](COCc2ccc(F)cc2)COC1 [Example 45, (11S)-11-{[(4-Fluorobenzyl)oxy]methyl}-10,11-dihydro-8H-[1,4]oxazino[4′,3′:1,2]imidazo[4,5-c]quinolin-6-amine]
  melting point: 134 to 137 °C

## C[C@H]1COCc2nc3c(N)nc4cc(/C=C/C(=O)N5CCOCC5)ccc4c3n21 [Example 62, (11S)-11-Methyl-3-[(1E)-3-morpholin-4-yl-3-oxoprop-1-enyl]-10,11-dihydro-8H-[1,4]oxazino[4′,3′:1,2]imidazo[4,5-c]quinolin-6-amine]
  melting point: > 250 °C

## Cc1nc(COc2ccc3nc(N)c4nc5n(c4c3c2)[C@@H](C)COC5)cs1 [Example 52, (11S)-11-Methyl-2-[(2-methyl-1,3-thiazol-4-yl)methoxy]-10,11-dihydro-8H-[1,4]oxazino[4′,3′:1,2]imidazo[4,5-c]quinolin-6-amine]
  melting point: 105 to 107 °C

## CC1CCOCc2nc3c(N)nc4cc(Br)ccc4c3n21 (stereo not shown) [Example 22, 3-Bromo-12-methyl-11,12-dihydro-8H,10H-[1,4]oxazepino[4′,3′:1,2]imidazo[4,5-c]quinolin-6-amine]
  melting point: 247 to 248 °C

## C[C@H]1COCc2nc3c(N)nc4ccc(OCCN5CCOCC5)cc4c3n21 [Example 56, (11S)-11-Methyl-2-(2-morpholin-4-ylethoxy)-10,11-dihydro-8H-[1,4]oxazino[4′,3′:1,2]imidazo[4,5-c]quinolin-6-amine]
  melting point: 186 to 188 °C

## COc1ccc(C[C@H]2COCc3nc4c(N)nc5ccccc5c4n32)cc1 [Example 49, (11S)-11-(4-Methoxybenzyl)-10,11-dihydro-8H-[1,4]oxazino[4′,3′:1,2]imidazo[4,5-c]quinolin-6-amine]
  melting point: 115 to 130 °C

## Nc1nc2ccccc2c2c1nc1n2[C@@H](COCc2ccccc2)COC1 [Example 34, (11S)-11-[(Benzyloxy)methyl]-10,11-dihydro-8H-[1,4]oxazino[4′,3′:1,2]imidazo[4,5-c]quinolin-6-amine]
  melting point: 184.6 to 186.2 °C

## CC(C)(F)[C@H]1COCc2nc3c(N)nc4ccccc4c3n21 [Example 11, (11R)-11-(1-Fluoro-1-methylethyl)-10,11-dihydro-8H-[1,4]oxazino[4′,3′:1,2]imidazo[4,5-c]quinolin-6-amine]
  melting point: 242 to 244 °C

## Nc1nc2ccccc2c2c1nc1n2[C@@H](CCl)COC1 [Example 36, (11R)-11-(Chloromethyl)-10,11-dihydro-8H-[1,4]oxazino[4′,3′:1,2]imidazo[4,5-c]quinolin-6-amine]
  melting point: 230 to 232 °C

## C[C@H]1COCc2nc3c(N)nc4cc(O)ccc4c3n21 [Example 8, (11S)-6-Amino-11-methyl-10,11-dihydro-8H-[1,4]oxazino[4′,3′:1,2]imidazo[4,5-c]quinolin-3-ol]
  melting point: > 250 °C

## C[C@H]1COCc2nc3c(N)nc4cc(CCC(=O)N5CCOCC5)ccc4c3n21 [Example 63, (11S)-11-Methyl-3-(3-morpholin-4-yl-3-oxopropyl)-10,11-dihydro-8H-[1,4]oxazino[4′,3′:1,2]imidazo[4,5-c]quinolin-6-amine]
  melting point: 245 to 247 °C

## CC(C)[C@H]1COCc2nc3c(N)nc4cccnc4c3n21 [Example 14, (11S)-11-Isopropyl-10,11-dihydro-8H-[1,4]oxazino[4′,3′:1,2]imidazo[4,5-c][1,5]naphthyridin-6-amine]
  melting point: 194 to 196 °C

## CC(C)[C@H]1COCc2nc3c(N)nc4cc(OCCN5CCOCC5)ccc4c3n21 [Example 59, (11S)-11-Isopropyl-3-(2-morpholin-4-ylethoxy)-10,11-dihydro-8H-[1,4]oxazino[4′,3′:1,2]imidazo[4,5-c]quinolin-6-amine]
  melting point: 194 to 195 °C

## C[C@@H]1CN(S(C)(=O)=O)Cc2nc3c(N)nc4ccccc4c3n21 [Example 32, (11R)-11-Methyl-9-(methylsulfonyl)-8,9,10,11-tetrahydropyrazino[1′,2′:1,2]imidazo[4,5-c]quinolin-6-amine]
  melting point: 258 to 261 °C
